Laboratory results: patent publication US4766114A, “Tricyclic compound called 5-((3-chloro-6-methyl-5,5-dioxo-6,11-dihydro-dibenzo (c,f) (1,2)thiazepin-11-yl)-amino) pentanoic acid” (ADIR Et Compagnie, priority 1986, dated 1988)
Where two headings read alike, the source gives them in different places.

Assays:
[1] = tested on: tetrabenazine-induced ptosis in the mouse; assay: Effects on tetrabenazine-induced ptosis in the mouse; format: in vivo, mouse (male CD)
Protocol: Male CD mice (Charles River), of average weight 23 g, were distributed in groups of 12 animals. […] The dose of products tested was 25 mg.kg^-1. The animals were observed individually 5, 25, 35 and 55 minutes after the injection of the tetrabenazine and the intensity of the ptosis was evaluated using a 0 to 4 rating scale.

[2] = tested on: reserpine-induced hypothermia in the mouse; assay: Effects on reserpine-induced hypothermia in the mouse; format: in vivo, mouse (NMRI); details: 50 mg.kg^-1 IP
Protocol: This study was carried out on experimental groups of 10 NMRI mice (IFFA-CREDO) fasted for 18 hours. […] One hour later, all the animals were given an intraperitoneal injection of 2 mg.kg^-1 of reserpine. Hypothermia was evaluated 4 hours after the injection of reserpine by measuring the rectal temperature using an electric thermometer.

antidepressant activity [3] = assay: Antidepressant activity (standard pharmacological tests); format: in vivo
Text: The standard pharmacological tests used to evaluate the antidepressant activity of new chemical compounds, described, in particular, in Enna S. J. et al. "Antidepressants: Neurochemical Behavioral, and Clinical Perspectives" Raven Press N.Y. 1981, p.

[4] = tested on: aggressivity of isolated mice; assay: Effects on the aggressivity of isolated mice; format: in vivo, mouse (male CD); details: for % OF PROTECTED COUPLES (no attack) / MEAN NUMBER OF ATTACKS ± SD: 30 minutes before test; for % OF PROTECTED COUPLES (no attack): 10 couples; for MEAN NUMBER OF ATTACKS ± SD: 3 minute test
Protocol: The male CD mice (Charles RIVER) used in this study were housed in small (18×10×10 cm) individual cages with the walls painted black, with one mouse per cage, for several months, at a constant temperature of 21° C. and in a light-darkness cycle of 12 hours. The average weight of the mice at the time of the study was 45 g.
Each experimental group comprised 10 couples of mice previously selected for their aggressivity. The aggressivity test was carried out on non-fasting animals. The "intruding" mouse of each couple was placed in the cage containing the other mouse for a 3 minute period.
The product was administered by the intraperitoneal route, 30 minutes before the test.

[5] = tested on: reserpine-induced ptosis in the mouse; assay: Effects on reserpine-induced ptosis in the mouse; format: in vivo, mouse (male NMRI); details: 25 mg.kg^-1 IP, reserpine 2 mg.kg^-1 IV
Protocol: This experiment was carried out on groups of 20 male NMRI mice (IFFA-CREDO), with an average weight of 20±2 g. […] GOURET et al., in J. Pharmacol., 1977, 8, (3) p. 333-350.
One hour after the injection of the reserpine, the animals were placed on a 5 cm×5 cm square, wood platform for 20 seconds. Ptosis was considered to be positive if the animal's eyes remained shut during the 20 seconds after it was placed on the platform. On the other hand, the animal was considered to be protected if the eyes were not completely closed during the 20 seconds following the moment when it was placed on the platform.

antidepressant activity [6] = details: French Pat. No. 71.32197; cited from earlier work
[7] = 20 mg.kg^-1 IP, controls 0%, S = statistically significant change

## CN1c2ccccc2C(NCCCCC(=O)O)c2ccc(Cl)cc2S1(=O)=O (stereo not shown) [compound of the formula I, 5-[(3-chloro-6-methyl-5,5-dioxo-6,11-dihydro-dibenzo(c,f)(1,2)thiazepin-11-yl)-amino]pentanoic acid]
[1]; 25 mg.kg^-1 IP
  activity against tetrabenazine-induced ptosis compared with TAHA (in words): much greater and long-lasting activity than TAHA
[1]; 25 mg.kg^-1 IP, 5 minutes after tetrabenazine 20 mg.kg^-1
  % controls (% change of the mean ptosis scores in comparison with the controls), 5 MINUTES: -69%
[1]; 25 mg.kg^-1 IP, 5 minutes after tetrabenazine 20 mg.kg^-1, 0 to 4 scale, controls 1.33 ± 0.65
  MEAN VALUE OF THE PTOSIS INTENSITY SCORE ± SD, 5 MINUTES: 0.42 ± 0.51
[1]; 25 mg.kg^-1 IP, 25 minutes after tetrabenazine 20 mg.kg^-1
  % controls (% change of the mean ptosis scores in comparison with the controls), 25 MINUTES: -32%
[1]; 25 mg.kg^-1 IP, 35 minutes after tetrabenazine 20 mg.kg^-1
  % controls (% change of the mean ptosis scores in comparison with the controls), 35 MINUTES: -35%
[1]; 25 mg.kg^-1 IP, 35 minutes after tetrabenazine 20 mg.kg^-1, 0 to 4 scale, controls 2.83 ± 0.58
  MEAN VALUE OF THE PTOSIS INTENSITY SCORE ± SD, 35 MINUTES: 1.83 ± 0.39
[1]; 25 mg.kg^-1 IP, 55 minutes after tetrabenazine 20 mg.kg^-1, 0 to 4 scale, controls 3.08 ± 0.51
  MEAN VALUE OF THE PTOSIS INTENSITY SCORE ± SD, 55 MINUTES: 2.42 ± 0.67
[1]; 25 mg.kg^-1 IP, 55 minutes after tetrabenazine 20 mg.kg^-1, NS = Non significant
  % controls (% change of the mean ptosis scores in comparison with the controls), 55 MINUTES: -22%
[1]; mouse, in vivo, ip
  MEAN VALUE OF THE PTOSIS INTENSITY SCORE ± SD, 25 MINUTES: 1.75 ± 0.45
[2]
  antagonism of reserpine-induced hypothermia (in words): much higher
[2]; rectal temperature 4 hours after reserpine 2 mg.kg^-1 IP, controls 24.7 ± 0.88
  FINAL TEMPERATURES MEAN ± SD: 30.9 ± 3.7
Antidepressant activity [3]
  antidepressant activity (in words): much greater antidepressant activity
Antidepressant activity [3]; listed as 5-[(3-chloro-6-methyl-5,5-dioxo-6,11-dihydrodibenzo(c,f)(1,2)thiazepin-11-yl)-a
  antidepressant activity (in words): very potent antidepressant activity
[4]; 10 mg.kg^-1 IP, controls 10%
  % OF PROTECTED COUPLES (no attack): 20%
[4]; 10 mg.kg^-1 IP, water controls 6.7 ± 4.7 (ATAH), 5.4 ± 2.8 (formula I)
  MEAN NUMBER OF ATTACKS ± SD: 7.2 ± 5.9
[4]; 20 mg.kg^-1 IP
  anti-aggressive effect (in words): clear anti-aggressive effect
[4]; [7]
  % OF PROTECTED COUPLES (no attack): 60%
[4]; isolated mice, IP
  anti-aggressive activity compared with TAHA (in words): much greater than that of TAHA
[5]
  antagonism of reserpine-induced ptosis (in words): much more active
[5]; 20 male NMRI mice per group
  animals protected from ptosis: 53%

## CN1c2ccccc2C(NCCCCCCC(=O)O)c2ccc(Cl)cc2S1(=O)=O (stereo not shown) [TAHA, 7-[(3-chloro-6-methyl-5,5-dioxo-6,11-dihydro-dibenzo(c,f)(1,2)thiazepin-11-yl)-amino]heptanoic acid, reference compound]
[4]; 10 mg.kg^-1 IP, controls 10%
  % OF PROTECTED COUPLES (no attack): 10%
[4]; 20 mg.kg^-1 IP
  anti-aggressive effect (in words): clear anti-aggressive effect
[4]; [7]
  % OF PROTECTED COUPLES (no attack): 40%
[4]; 20 mg.kg^-1 IP, water controls 8.3 ± 6.0
  MEAN NUMBER OF ATTACKS ± SD: 3.7 ± 4.9
Antidepressant activity [6]
  antidepressant properties (in words): antidepressant properties
